From US5616123A, “Delivery of solid drug compositions” (Delab, priority 1995, dated 1997)

Columns and labels:
[1] = cited from earlier work; for solubility: in words
[2] = plasma levels of BN 50730 after subcutaneous injection (FIGS. 13, 14); type: in vivo, rabbits
Experimental: These cylinders were injected subcutaneously into rabbits at a dosage of 2.0 mg/kg for a comparison study with BN 50730 mixed with propylene glycol. […] This 10 ng/ml is a sufficient concentration for a pharmacological effect.

Recombinant human insulin [RHI]
water solubility [1]: water soluble

bovine pancreas insulin [BPI]
water solubility [1]: water insoluble

COc1ccc(NC(=S)N2CCc3c(sc4c3C(c3ccccc3Cl)=NCc3nnc(C)n3-4)C2)cc1 [BN 50730, 4,7,8,10-tetrahydro-1-methyl-6-(2-chlorphenyl)-9-(4-methoxyphenyl-thiocarbamoyl)-pyrrido-[4',3'-4,5]thieno[3,2-f]-1,2,4-triazolo[4,3-a]1,4-diazepine]
sufficient concentration for a pharmacological effect ([2]; plasma concentration): 10 ng/ml | effect in plasma (onset) ([2]; solid formulation, subcutaneous, rabbits, 2.0 mg/kg): immediate effect in plasma | solubility [1]: insoluble

CCCCNc1ccc(C(=O)OCCN(C)C)cc1 [tetracaine]
solubility [1]: soluble
